{"source": "ChEMBL document CHEMBL1152952", "about": "“Synthesis and pharmacological evaluation of 1,2,3,4-tetrahydropyrazino[1,2-a]indole and 2-[(phenylmethylamino)methyl]-1H-indole analogues as novel melatoninergic ligands” (Bioorg Med Chem, 2009)", "key": {"[1]": {"molecular_target": "T1, Melatonin receptor type 1A (Homo sapiens, UniProt P48039)", "T1 sequence (P48039 whole entry)": "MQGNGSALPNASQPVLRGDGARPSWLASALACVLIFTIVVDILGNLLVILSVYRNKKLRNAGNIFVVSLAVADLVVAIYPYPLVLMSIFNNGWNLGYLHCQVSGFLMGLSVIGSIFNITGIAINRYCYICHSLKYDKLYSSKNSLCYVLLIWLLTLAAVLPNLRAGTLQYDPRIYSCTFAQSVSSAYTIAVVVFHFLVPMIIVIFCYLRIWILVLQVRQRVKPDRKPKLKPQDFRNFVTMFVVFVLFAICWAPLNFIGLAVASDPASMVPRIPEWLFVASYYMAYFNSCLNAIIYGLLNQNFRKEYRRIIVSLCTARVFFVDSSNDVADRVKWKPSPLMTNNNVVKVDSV", "assay": "Displacement of 2-[125I]iodomelatonin from human MT1 receptor expressed in CHO cells by gamma counting", "format": "cell-based"}, "Homo sapiens": {"species": "Homo sapiens", "assay": "Selectivity ratio of Ki for human MT1 receptor to Ki for human MT2 receptor"}, "[2]": {"molecular_target": "T1, Melatonin receptor type 1A", "assay": "Agonist activity at human MT1 receptor expressed in CHO cells assessed as inhibition of forskolin-induced cAMP accumulation at 1 uM", "format": "functional, cell-based"}, "[3]": {"molecular_target": "T2, Melatonin receptor type 1B (Homo sapiens, UniProt P49286)", "T2 sequence (P49286 whole entry)": "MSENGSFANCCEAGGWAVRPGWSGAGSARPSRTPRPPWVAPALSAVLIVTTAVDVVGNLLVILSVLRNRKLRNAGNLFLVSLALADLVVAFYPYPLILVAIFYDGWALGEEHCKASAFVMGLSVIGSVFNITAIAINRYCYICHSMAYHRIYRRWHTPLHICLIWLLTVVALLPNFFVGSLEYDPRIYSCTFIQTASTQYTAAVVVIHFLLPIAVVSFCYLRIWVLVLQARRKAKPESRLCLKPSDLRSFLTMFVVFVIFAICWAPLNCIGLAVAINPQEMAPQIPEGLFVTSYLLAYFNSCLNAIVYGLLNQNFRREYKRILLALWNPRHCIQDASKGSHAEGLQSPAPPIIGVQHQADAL", "assay": "Displacement of 2-[125I]iodomelatonin from human MT2 receptor expressed in CHO cells by gamma counting", "format": "cell-based"}, "[4]": {"molecular_target": "T3, Melatonin receptor type 1B (Homo sapiens) (UniProt P49286)", "T3 sequence (whole entry)": "T2 sequence (P49286 whole entry)", "assay": "Intrinsic activity at human MT2 receptor expressed in CHO cells assessed as inhibition of forskolin-induced cAMP accumulation at 10 nM", "format": "functional, cell-based"}, "[5]": {"molecular_target": "T1, Melatonin receptor type 1A", "assay": "Agonist activity at human MT1 receptor expressed in CHO cells assessed as inhibition of forskolin-induced cAMP accumulation", "format": "functional, cell-based"}, "[6]": {"molecular_target": "T1, Melatonin receptor type 1A", "assay": "Agonist activity at human MT1 receptor expressed in CHO cells assessed as inhibition of forskolin-induced cAMP accumulation at 10 nM", "format": "functional, cell-based"}}, "note": "The source made the active and inactive calls. The calls are words filed in the database; no cut-off is given here."}
{"molecule": "COc1ccc2[nH]c(CN(C)c3ccccc3)c(CCNC(C)=O)c2c1", "values": [{"measurement": "Ki", "setting": "[1]; read-out: pKi (converted)", "result": 15.5, "unit": "nM"}, {"measurement": "Ratio Ki", "setting": "Homo sapiens", "result": 8}, {"measurement": "inhibition", "setting": "[2]", "result": 60, "unit": "%"}, {"measurement": "Ki", "setting": "[3]; read-out: pKi (converted)", "result": 2.29, "unit": "nM"}, {"measurement": "Activity", "setting": "[4]", "result": "inactive"}]}
{"molecule": "COc1ccc2c(c1)CC1Cn3c(c(CCNC(C)=O)c4cc(OC)ccc43)CN21", "note": "(centres undefined)", "values": [{"measurement": "Ratio Ki", "setting": "Homo sapiens", "result": 4.4}]}
{"molecule": "CCCC(=O)NCCc1c2n(c3ccccc13)CCN(C)C2", "values": [{"measurement": "Ki", "setting": "[1]; read-out: pKi (converted)", "result": 257, "unit": "nM"}, {"measurement": "Ki", "setting": "[3]; read-out: pKi (converted)", "result": 85.1, "unit": "nM"}]}
{"molecule": "CCCC(=O)NCCc1c2n(c3ccc(OC)cc13)CCN(C)C2", "values": [{"measurement": "Ki", "setting": "[1]; read-out: pKi (converted)", "result": 6.61, "unit": "nM"}, {"measurement": "IC50", "setting": "[5]", "result": 3.14, "unit": "nM"}, {"measurement": "Ki", "setting": "[3]; read-out: pKi (converted)", "result": 6.92, "unit": "nM"}, {"measurement": "inhibition", "setting": "[6]", "result": 12, "unit": "%"}, {"measurement": "Activity", "setting": "[4]", "result": "inactive"}]}
{"molecule": "COc1ccc2c(c1)c(CCNC(C)=O)c1n2CCN(C)C1", "values": [{"measurement": "Ki", "setting": "[1]; read-out: pKi (converted)", "result": 11.7, "unit": "nM"}, {"measurement": "Ki", "setting": "[3]; read-out: pKi (converted)", "result": 7.76, "unit": "nM"}]}
{"molecule": "COc1ccc(N(C)Cc2[nH]c3ccc(OC)cc3c2CCNC(C)=O)cc1", "values": [{"measurement": "Ki", "setting": "[1]; read-out: Ki", "result": 8, "unit": "nM"}, {"measurement": "Ki", "setting": "[3]; read-out: Ki", "result": 9, "unit": "nM"}]}
{"molecule": "COc1ccc2[nH]c(CN(C)c3ccc(C(F)(F)F)cc3)c(CCNC(C)=O)c2c1", "values": [{"measurement": "Ki", "setting": "[1]; read-out: Ki", "result": 111, "unit": "nM"}, {"measurement": "Ki", "setting": "[3]; read-out: Ki", "result": 63, "unit": "nM"}]}
{"molecule": "COc1ccc2c(c1)c(CCNC(C)=O)c1n2CCCN(C)C1", "values": [{"measurement": "Ki", "setting": "[1]; read-out: pKi (converted)", "result": 5620, "unit": "nM"}, {"measurement": "Ratio Ki", "setting": "Homo sapiens", "result": 6}, {"measurement": "Ki", "setting": "[3]; read-out: pKi (converted)", "result": 891, "unit": "nM"}]}
{"molecule": "COc1ccc2[nH]c(CN(C)Cc3ccccc3)c(CCNC(C)=O)c2c1", "values": [{"measurement": "Ki", "setting": "[1]; read-out: pKi (converted)", "result": 1290, "unit": "nM"}, {"measurement": "Ki", "setting": "[3]; read-out: pKi (converted)", "result": 661, "unit": "nM"}]}
{"molecule": "CCN(C)Cc1[nH]c2ccc(OC)cc2c1CCNC(C)=O", "values": [{"measurement": "Ki", "setting": "[1]; read-out: pKi (converted)", "result": 1000, "unit": "nM"}, {"measurement": "Ki", "setting": "[3]; read-out: pKi (converted)", "result": 224, "unit": "nM"}]}
{"molecule": "COc1ccc2[nH]c(CN(C)c3ccc(Cl)cc3)c(CCNC(C)=O)c2c1", "values": [{"measurement": "Ki", "setting": "[1]; read-out: pKi (converted)", "result": 257, "unit": "nM"}, {"measurement": "Ratio Ki", "setting": "Homo sapiens", "result": 6}, {"measurement": "Ki", "setting": "[3]; read-out: pKi (converted)", "result": 42.7, "unit": "nM"}]}
